From ChEMBL document CHEMBL4831524, “AZD0284, a Potent, Selective, and Orally Bioavailable Inverse Agonist of Retinoic Acid Receptor-Related Orphan Receptor C2” (J Med Chem, 2021)

Experiments:
in vitro [1] = settings: human, liver microsomes
physchem = settings: 1-octanol/phosphate buffered saline, pH 7.4
cells = settings: Homo sapiens, Th17, 96 h
[2] = Apparent permeability across apical to basolateral side in human Caco-2 cells; type: ADME, cell-based
[3] = Intrinsic permeability of compound from apical to basolateral side in human Caco2 cells; type: ADME, cell-based; settings: Caco-2
[4] = target: Voltage-gated inwardly rectifying potassium channel KCNH2 (Homo sapiens, UniProt Q12809)
Voltage-gated inwardly rectifying potassium channel KCNH2, sequence (Q12809 whole entry): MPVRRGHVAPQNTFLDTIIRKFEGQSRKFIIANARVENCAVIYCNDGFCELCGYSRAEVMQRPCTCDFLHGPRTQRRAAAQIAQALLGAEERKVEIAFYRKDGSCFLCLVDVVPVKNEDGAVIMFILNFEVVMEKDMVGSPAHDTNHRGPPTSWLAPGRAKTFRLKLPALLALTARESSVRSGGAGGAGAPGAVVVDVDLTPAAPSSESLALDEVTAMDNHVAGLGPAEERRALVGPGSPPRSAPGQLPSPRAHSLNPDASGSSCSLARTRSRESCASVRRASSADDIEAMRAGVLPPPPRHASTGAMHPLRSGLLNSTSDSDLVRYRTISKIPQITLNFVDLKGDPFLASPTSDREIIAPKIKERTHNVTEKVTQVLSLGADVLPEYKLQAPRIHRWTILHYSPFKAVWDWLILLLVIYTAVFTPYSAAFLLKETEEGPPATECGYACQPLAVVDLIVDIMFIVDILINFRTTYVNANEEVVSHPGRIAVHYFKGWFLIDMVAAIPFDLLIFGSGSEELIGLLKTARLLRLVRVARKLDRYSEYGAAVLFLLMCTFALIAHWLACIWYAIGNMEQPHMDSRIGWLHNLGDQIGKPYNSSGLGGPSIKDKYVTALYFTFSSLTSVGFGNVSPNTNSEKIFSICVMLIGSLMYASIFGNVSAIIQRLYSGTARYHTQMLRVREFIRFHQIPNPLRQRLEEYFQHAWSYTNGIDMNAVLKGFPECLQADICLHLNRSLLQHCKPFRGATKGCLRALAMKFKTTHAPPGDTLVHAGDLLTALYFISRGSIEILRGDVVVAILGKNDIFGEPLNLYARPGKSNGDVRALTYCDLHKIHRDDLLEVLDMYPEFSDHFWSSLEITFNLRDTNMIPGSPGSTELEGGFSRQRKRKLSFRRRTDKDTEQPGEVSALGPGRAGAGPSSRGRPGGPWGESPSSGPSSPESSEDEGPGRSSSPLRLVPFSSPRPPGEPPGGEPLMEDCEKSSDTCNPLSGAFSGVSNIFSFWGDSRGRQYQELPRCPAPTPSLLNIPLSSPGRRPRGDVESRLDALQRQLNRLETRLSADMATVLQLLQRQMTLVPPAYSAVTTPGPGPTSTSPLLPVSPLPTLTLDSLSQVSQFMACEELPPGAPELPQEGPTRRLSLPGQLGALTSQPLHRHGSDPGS

[5] = rat, in vivo, po, 1 mg/kg
in vivo [6] = settings: Han Wistar, rat, po, 1 mg/kg
in vivo [7] = settings: Han Wistar, rat, po, 1 mg/kg; remark: listed apart in the source
in vitro [8] = settings: rat, hepatocytes
in vivo [9] = settings: Han Wistar, rat, po, 1 mg/kg; remark: listed apart in the source
in vitro [10] = settings: human, hepatocytes

| Compound | microsomal CLint (in vitro [1]) | logD (physchem) | other results |
| --- | --- | --- | --- |
| CCS(=O)(=O)c1ccc(C(Cc2nnco2)C(=O)Nc2ccc(C(O)(C(F)(F)F)C(F)(F)F)cc2)cc1 (stereo not given) | < 3 µL/min/mg | 2.9 | IC50 (cells): 224 nM |
| CS(=O)(=O)c1ccc2c(c1)CN(C(=O)C1CCO1)C2C(=O)Nc1ccc(C(O)(C(F)(F)F)C(F)(F)F)cc1 (stereo not given) | < 3 µL/min/mg | 2.2 | – |
| CCS(=O)(=O)c1ccc(C(NC(C)=O)C(=O)Nc2ccc(C(O)(C(F)(F)F)C(F)(F)F)cc2)nc1 (stereo not given) | < 3 µL/min/mg | 2.5 | Papp A→B [2]: 0.7 ×10⁻⁶ cm/s; IC50 (cells): 63 nM; Pm [3]: 7.7 |
| CCS(=O)(=O)c1ccc2c(c1)CN(C(=O)CCC#N)C2C(=O)Nc1ccc(C(O)(C(F)(F)F)C(F)(F)F)cc1 (stereo not given) | < 3 µL/min/mg | 2.5 | – |
| CCS(=O)(=O)c1ccc2c(c1)CN(C=O)C2C(=O)Nc1ccc(C(O)(C(F)(F)F)C(F)(F)F)cc1 (stereo not given) | < 3 µL/min/mg | 2.9 | – |
| CS(=O)(=O)c1ccc2c(c1)CN(C(=O)CCC#N)C2C(=O)Nc1ccc(C(O)(C(F)(F)F)C(F)(F)F)cc1 (stereo not given) | < 3 µL/min/mg | 2.3 | – |
| CCS(=O)(=O)c1ccc(C(NC(=O)CC2CC2)C(=O)Nc2ccc(C(O)(C(F)(F)F)C(F)(F)F)cc2)nc1 (stereo not given) | 22 µL/min/mg | 3.5 | Papp A→B [2]: 1.1 ×10⁻⁶ cm/s; IC50 [4]: 34 µM; IC50 (cells): 20 nM; Pm [3]: 14.2 |
| CC(=O)N1Cc2cc(S(C)(=O)=O)ccc2[C@H]1C(=O)Nc1ccc(C(O)(C(F)(F)F)C(F)(F)F)cc1 | < 3 µL/min/mg | 2.4 | – |
| CCS(=O)(=O)c1ccc(C(NC(=O)Cc2ccccc2)C(=O)Nc2ccc(C(O)(C(F)(F)F)C(F)(F)F)cc2)nc1 (stereo not given) | 21 µL/min/mg | 4 | Papp A→B [2]: 0.9 ×10⁻⁶ cm/s; IC50 [4]: 16 µM; Pm [3]: 29 |
| CCS(=O)(=O)c1ccc(C(Cn2cccn2)C(=O)Nc2ccc(C(O)(C(F)(F)F)C(F)(F)F)cc2)cc1 (stereo not given) | 16 µL/min/mg | > 4 | Papp A→B [2]: 2.6 ×10⁻⁶ cm/s; IC50 [4]: 2.4 µM; IC50 (cells): 360 nM; Pm [3]: 44 |
| CCS(=O)(=O)c1ccc(C(CC(=O)NC)C(=O)Nc2ccc(C(O)(C(F)(F)F)C(F)(F)F)cc2)cc1 (stereo not given) | < 3 µL/min/mg | 3.1 | Papp A→B [2]: 0.4 ×10⁻⁶ cm/s; Pm [3]: 8 |
| CS(=O)(=O)c1ccc2c(c1)CNC2C(=O)Nc1ccc(C(O)(C(F)(F)F)C(F)(F)F)cc1 (stereo not given) | < 3 µL/min/mg | 3 | – |
| CNS(=O)(=O)c1ccc2c(c1)CN(C(C)=O)C2C(=O)Nc1ccc(C(O)(C(F)(F)F)C(F)(F)F)cc1 (stereo not given) | < 3 µL/min/mg | 2.8 | – |
| COCCS(=O)(=O)c1ccc2c(c1)CN(C(C)=O)C2C(=O)Nc1ccc(C(O)(C(F)(F)F)C(F)(F)F)cc1 (stereo not given) | 11 µL/min/mg | 2.5 | – |
| CCS(=O)(=O)c1ccc([C@@H](CC(=O)NC)C(=O)Nc2ccc(C(O)(C(F)(F)F)C(F)(F)F)cc2)cc1 | < 3 µL/min/mg | 3.2 | Papp A→B [2]: 0.3 ×10⁻⁶ cm/s; IC50 [4]: > 40 µM; Pm [3]: 3.2 |
| NCCC(=O)N1Cc2cc(S(=O)(=O)CC3CC3)ccc2C1C(=O)Nc1ccc(C(O)(C(F)(F)F)C(F)(F)F)cc1 (stereo not given) | < 3 µL/min/mg | 1.1 | – |
| CCS(=O)(=O)c1ccc(C(NC(=O)OC)C(=O)Nc2ccc(C(O)(C(F)(F)F)C(F)(F)F)cc2)nc1 (stereo not given) | < 3 µL/min/mg | 2.9 | IC50 [4]: 9.3 µM |
| CCS(=O)(=O)c1ccc(C(NC(=O)Cc2ccccn2)C(=O)Nc2ccc(C(O)(C(F)(F)F)C(F)(F)F)cc2)nc1 (stereo not given) | < 3 µL/min/mg | 2.8 | IC50 [4]: 4.1 µM |

| Compound | microsomal CLint (in vitro [1]) | logD (physchem) | other results |
| --- | --- | --- | --- |
| COCC(=O)N1Cc2cc(S(=O)(=O)CC3CC3)ccc2C1C(=O)Nc1ccc(C(O)(C(F)(F)F)C(F)(F)F)cc1 (stereo not given) | 19 µL/min/mg | 3.2 | – |
| CNC(=O)N1Cc2cc(S(C)(=O)=O)ccc2C1C(=O)Nc1ccc(C(O)(C(F)(F)F)C(F)(F)F)cc1 (stereo not given) | < 3 µL/min/mg | 2.5 | – |
| CCS(=O)(=O)c1ccc(C(NC(=O)Cc2nccs2)C(=O)Nc2ccc(C(O)(C(F)(F)F)C(F)(F)F)cc2)nc1 (stereo not given) | 16 µL/min/mg | 3.1 | Papp A→B [2]: 2.5 ×10⁻⁶ cm/s; IC50 [4]: 5.5 µM; Pm [3]: 11 |
| CCS(=O)(=O)c1ccc(C(CC(=O)N(C)C)C(=O)Nc2ccc(C(O)(C(F)(F)F)C(F)(F)F)cc2)cc1 (stereo not given) | 5 µL/min/mg | 3.1 | Papp A→B [2]: 1.4 ×10⁻⁶ cm/s; IC50 (cells): 91 nM; Pm [3]: 24 |
| CCS(=O)(=O)c1ccc([C@H](CC(=O)NC)C(=O)Nc2ccc(C(O)(C(F)(F)F)C(F)(F)F)cc2)cc1 | < 3 µL/min/mg | 3.1 | IC50 [4]: > 40 µM |
| CC(=O)N1Cc2cc(S(=O)(=O)NC3CC3)ccc2C1C(=O)Nc1ccc(C(O)(C(F)(F)F)C(F)(F)F)cc1 (stereo not given) | 11 µL/min/mg | 3.2 | – |
| CS(=O)(=O)c1ccc2c(c1)CN(C(=O)CO)C2C(=O)Nc1ccc(C(O)(C(F)(F)F)C(F)(F)F)cc1 (stereo not given) | < 3 µL/min/mg | 1.9 | – |
| CC(=O)N1Cc2cc(S(=O)(=O)CCO)ccc2C1C(=O)Nc1ccc(C(O)(C(F)(F)F)C(F)(F)F)cc1 (stereo not given) | 3.1 µL/min/mg | 2.1 | – |
| COC(=O)N1Cc2cc(S(C)(=O)=O)ccc2C1C(=O)Nc1ccc(C(O)(C(F)(F)F)C(F)(F)F)cc1 (stereo not given) | < 3 µL/min/mg | 2.9 | – |
| CCS(=O)(=O)c1ccc2c(c1)CN(C(=O)C1CCO1)C2C(=O)Nc1ccc(C(O)(C(F)(F)F)C(F)(F)F)cc1 (stereo not given) | < 3 µL/min/mg | 2.6 | – |
| CNS(=O)(=O)c1ccc2c(c1)CN(C(=O)C1CCO1)C2C(=O)Nc1ccc(C(O)(C(F)(F)F)C(F)(F)F)cc1 (stereo not given) | < 3 µL/min/mg | 2.6 | – |
| CNS(=O)(=O)c1ccc2c(c1)CN(C=O)C2C(=O)Nc1ccc(C(O)(C(F)(F)F)C(F)(F)F)cc1 (stereo not given) | 6.8 µL/min/mg | 2.7 | – |
| CC(=O)N1Cc2cc(S(=O)(=O)CC3CC3)ccc2C1C(=O)Nc1ccc(C(O)(C(F)(F)F)C(F)(F)F)cc1 (stereo not given) | < 3 µL/min/mg | 3.4 | – |
| CC(=O)N1Cc2cc(S(=O)(=O)CC3(F)CC3)ccc2C1C(=O)Nc1ccc(C(O)(C(F)(F)F)C(F)(F)F)cc1 (stereo not given) | 7.9 µL/min/mg | 3.1 | – |
| CC(=O)N1CCc2cc(S(C)(=O)=O)ccc2C1C(=O)Nc1ccc(C(O)(C(F)(F)F)C(F)(F)F)cc1 (racemic) | < 3 µL/min/mg | 2.9 | – |
| CC(=O)NC(C(=O)Nc1ccc(C(O)(C(F)(F)F)C(F)(F)F)cc1)c1ccc(S(C)(=O)=O)cc1 (racemic) | < 3 µL/min/mg | 2.7 | – |
| CC(=O)N1Cc2cc(S(C)(=O)=O)ccc2C1C(=O)Nc1ccc(C(O)(C(F)(F)F)C(F)(F)F)cc1 (racemic) | < 3 µL/min/mg | 2.4 | Vdss [5]: 2 L/kg; half-life (in vivo [6]): 294 min; bioavailability (in vivo [7]): 40%; hepatocyte CLint (in vitro [8]): < 1 µL/min/1e6 cells; CL/F (in vivo [9]): 6.3 mL/min/kg; hepatocyte CLint (in vitro [10]): < 1 µL/min/1e6 cells |
